Columns and labels:
[1] = Enzyme stability in human liver microsomes (Phase I); type: in vitro ADME; conditions: pH 7.4; 0.5 mg/mL pooled human liver microsomes, 10 μM compound, 37° C.
Protocol: Measuring of enzyme stability of the present compounds enabled estimation of their stability towards the action of Phase I biotransformation enzymes.
The rate of enzymatic decomposition of a compound was detected by incubating the reaction mixture in a dry block heater at 37° C.; the reaction mixture contained 0.5 mg/mL of pooled human liver microsomes (XenoTech, USA, cat #H6010), 10 μM of a compound, 2 mM β-nicotinamide adenine dinucleotide (Carbosynth, UK, cat #NN10871) and 4 mM of magnesium chloride in 0.1M sodium phosphate buffer (pH=7.4). The reaction was quenched with acetonitrile (100 μL of acetonitrile/100 μL of the reaction mixture). After quenching, the samples were centrifuged at 10000 rpm for 10 minutes. Supernatant fluid was tested by chromatographic technique using Agilent1200 (Agilent, USA). Chromatographic analysis was performed in a gradient elution regime with a flow rate of 1 mL/min. A graph of the logarithm of substance's peak area as a function of time was made. The dependent factor of the line corresponded to the elimination rate constant K based on which the drug's half-lif½e T and degradation rate CLint were calculated:
Based on the data obtained, candidates' enzyme stability in human liver microsomes was determined.

MV4-11 cells = assay: Antiproliferative activity, MV4-11 cells (AlamarBlue); type: cell-based; conditions: Homo sapiens, 120 h incubation, read-out: MV-4-11 IC50
Protocol: (§1) Antiproliferative activity of CDK8 inhibitors according to the present invention was measured in a cell-based test on continuous cell cultures MV4-11 (biphenotypic myelomonocytic leukemia, ATCC® CRL-9591™), KG-1 (acute myeloid leukemia, ATCC® CCL-246™) using a vital stain AlamarBlue (ThermoFisher, #DAL1100). The cells were grown in RPMI-1640 (PanEco, #C330p) medium with addition of 10% FBS (Gibco, #16140-071); washed and resuspended in culture medium with 10% FBS (Gibco, #16140-071) in 96-well culture plates (Corning, #3599) with ≈10×10^3 cells in […] of medium per well. The compounds in question were dissolved in DMSO and diluted with a medium with 10% FBS (Gibco, #16140-071) to a final concentration ranging from 0 to 100 μM. […] of diluted compounds were then added to each well (final DMSO concentration was less than 1%) and incubated under 5% CO2 atmosphere at 37° C. for 120 h. After incubating, 15 μL/well of AlamarBlue (ThermoFisher, #DAL1100) reagent was added, contents of plates were mixed in an orbital shaker (Biosan, Latvia) and further incubated for 3-5 h at 37° C. under 5% CO2 atmosphere. Number of living cells was estimated using a microplate spectrophotometer (Tecan Infinite M200Pro, Switzerland) measuring fluorescent signal at the excitation wavelength (λEx) of 540 nm and emission wavelength (λEm) of 590 nm.
(§2) IC50 values were calculated using Magellan 7.2 software (Tecan, Switzerland) approximating experimental points by four-parameter logistic model with the optimization by Levenberg-Marquardt (Table 6).

CDK8/Cyclin C = CDK8/Cyclin C (Homo sapiens (Human), UniProt P49336); assay: LanthaScreen binding to recombinant CDK8/Cyclin C; conditions: TR-FRET, Tracer 236 10 nM, CDK8/Cyclin C 5 nM
CDK8/Cyclin C, sequence (P49336 whole entry): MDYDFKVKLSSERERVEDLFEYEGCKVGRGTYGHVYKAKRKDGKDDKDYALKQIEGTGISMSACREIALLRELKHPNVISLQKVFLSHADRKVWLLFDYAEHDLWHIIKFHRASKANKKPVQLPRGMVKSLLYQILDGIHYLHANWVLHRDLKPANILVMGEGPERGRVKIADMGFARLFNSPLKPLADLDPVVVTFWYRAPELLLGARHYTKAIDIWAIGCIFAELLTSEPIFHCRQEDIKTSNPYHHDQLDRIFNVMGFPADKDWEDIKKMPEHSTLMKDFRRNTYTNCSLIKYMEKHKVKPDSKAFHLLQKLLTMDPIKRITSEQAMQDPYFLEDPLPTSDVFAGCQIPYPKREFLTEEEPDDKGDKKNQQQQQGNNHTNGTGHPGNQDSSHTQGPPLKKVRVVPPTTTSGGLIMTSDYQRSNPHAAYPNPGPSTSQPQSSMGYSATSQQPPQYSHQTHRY
CDK8/Cyclin C, sequence (P24863 whole entry partner): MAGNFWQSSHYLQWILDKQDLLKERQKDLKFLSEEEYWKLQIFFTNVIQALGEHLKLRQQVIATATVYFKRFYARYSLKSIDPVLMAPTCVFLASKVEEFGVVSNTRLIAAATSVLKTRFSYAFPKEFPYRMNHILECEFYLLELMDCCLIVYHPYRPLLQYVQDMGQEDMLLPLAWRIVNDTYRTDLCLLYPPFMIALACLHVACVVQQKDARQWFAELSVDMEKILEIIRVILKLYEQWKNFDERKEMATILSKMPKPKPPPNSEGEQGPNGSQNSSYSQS
Protocol: Capability of compounds of the present invention to bind to CDK8 protein was detected using LanthaScreen (ThermoFisher) assay. We detected FRET signal proportional to the amount of CDK8-bound fluorescently-labeled ligand (Tracer 236) that competes with inhibitor for ATP binding site. We carried out the measurements in a 15 μl reaction volume using a 384-well plate (Corning, #CLS4513). Enzyme CDK8/Cyclin C (ThermoFisher, #PR7261B) was mixed with antibodies Anti-His-tag-Biotin (ThermoFisher, #PV6090), Streptavidin-Eu (ThermoFisher, #PV6025), the resulting mixture was added to plate wells (5 MKπ/well). Final concentrations of substances were as follows: CDK8/Cyclin C—5 nM, Streptavidin-Eu—3 nM, Anti-His-tag-Biotin—3 nM. Staurosporine (S4400, Sigma) was used as a reference inhibitor, and 0.1% solution of dimethyl sulphoxide (DMSO) in reaction buffer was used as a blank, the reaction buffer comprised 250 mM HEPES (pH 7.5), 50 mM MgCl2, 5 mM EGTA, and 0.05% Brij-35.
The inhibitors and controls in question were added to corresponding wells (5 μl/well). The plate was incubated at room temperature for 20 minutes. After incubating, 5 μl/well of tracer solution Alexa Fluor-647 (Kinase Tracer 236, ThermoFisher, #PV5592)) was added to the wells. Final concentration of tracer was 10 nM. Reaction buffer, instead of tracer solution, was used as a negative control. The plate was incubated for 40 minutes at 25° C., TR-FRET signal was then measured according to the manufacturer's guidelines on SPARK20 plate reader (Tecan, Switzerland), and the value was converted to the amount of kinase-bound tracer. IC50 values were calculated using SparkControl Magellan 1.2 software (Tecan, Switzerland) approximating experimental points by four-parameter logistic model with the optimization by Levenberg-Marquardt (Table 5).

[2] = Enzyme stability in human liver S9 fractions (Phase II); type: in vitro ADME; conditions: pH 7.4; 0.5 mg/mL pooled human liver S9 fractions, 10 μM compound, 37° C.; read-out: Enzyme stability Liver S9 fraction CLint
Protocol: Measuring of enzyme stability of the present compounds enabled estimation of their stability towards the action of Phase II biotransformation enzymes.
Enzyme degradation rate was measured by incubating the reaction mixture in a dry block thermostat at 37° C., said reaction mixture comprising 0.5 mg/mL of pooled human liver S9 fractions (XenoTech, USA, cat #H0610), 10 μM compound, 2 mM β-nicotinamide adenine dinucleotide (Carbosynth, UK, cat #NN10871) and 4 mM magnesium chloride in 0, 1 M sodium-phosphate buffer, pH=7, 4. The reaction was quenched with acetonitrile (100 μL of acetonitrile/100 μL of the reaction mixture). After quenching, the samples were centrifuged at 10000 rpm for 10 minutes. Supernatant fluid was tested by chromatographic technique using Agilent1200 (Agilent, USA). Chromatographic analysis was performed in a gradient elution regime with a flow rate of 1 mL/min A graph of the logarithm of substance's peak area as a function of time was made. The dependent factor of the line corresponded to the elimination rate constant K based on which the drug's half-life T½ and degradation rate CLint were calculated:
Based on the data obtained, candidates' enzyme stability in human liver S9 fractions was determined.

KG-1 cells = assay: Antiproliferative activity, KG-1 cells (AlamarBlue); type: cell-based; conditions: Homo sapiens, KG-1, 120 h, 120 h incubation
Protocol: as §1, §2

[3] = Stability of the compounds in human blood plasma; type: in vitro ADME; conditions: pooled human blood plasma, 10 μM, 4 hours at 37° C.
Protocol: To assess the blood plasma stability of the compounds, we used pooled human blood plasma taken from ten healthy donors. The initial candidate solution (10 mM in DMSO) was diluted with pooled blood plasma to a concentration of 10 μm (test solution). The test solution was incubated in a dry block thermostat for 4 hours at 37° C. HPLC with Agilent 1200 liquid chromatography system (Agilent, USA) was employed to determine peak areas of the compounds in test samples, said peak areas corresponding to the initial test time (prior to incubation) and the final test time (after incubation in a dry block thermostat for 4 hours at 37° C.), proteins were preliminarily precipitated with acetonitrile. Chromatographic analysis was performed in a gradient elution regime with a flow rate of 1 mL/min Substance amount in % in a sample after thermostatting was determined.
The stability of the compounds was estimated. The compounds described herein show at least 90% chemical stability, i.e. they are chemically stable in human blood plasma (Table 2).

[4] = General cytotoxicity on HepG2 cells; type: cell-based; conditions: human, 72 h incubation
Protocol: The CC50 values were determined in the test for General cytotoxicity On HepG2 cells (hepatocellular carcinoma, ATCC® HB-8065™). Cells per well were seeded in 96-well plates (Corning, #3599) at a concentration ≈20×10^3 cells in 100 μL of medium and incubated for 72 h with added compounds within the range of concentrations of 200 to 0.78 μM. Cell viability was assessed using the above method.

SMILES	microsomal CLint at 10 μM [1] [µL/min/mg]	IC50 (MV4-11 cells) [nM]	IC50 (CDK8/Cyclin C) [nM]	microsomal CLint at 10 μM [2] [µL/min/mg]	IC50 (KG-1 cells) [nM]	Chemical stability in human blood plasma 4 h, % [3] [%]	CC50 at 72 h [4] [nM]
CN1CCN(C(=O)c2cnc3c(N)ncc(-c4ccc(-c5cnn(CC(=O)N(C)C)c5)cc4)c3c2)CC1 [Compound 3.49, 2-(4-(4-(8-amino-3-(4-methylpiperazine-1-carbonyl)-1,7-naphthyridine-5-yl)phenyl) -1H-pyrazole-1-yl)-N,N-dimethylacetamide]	7	2.8	1.85	1.4	12.9	100.0	> 100000
CN1CCN(C(=O)Cn2cc(-c3ccc(-c4cnc(N)c5ncc(C(=O)N6CCC6)cc45)cc3)cn2)CC1 [Compound 3.53, 2-(4-(4-(8-amino-3-(azetidine-1-carbonyl)-1,7-naphthyridine-5-yl)phenyl)-1H-pyrazole-1-yl)-1-(4-methylpiperazine-1-yl)ethan-1-one]	7.8	1.3	1.01	7.1	2.4	100.0	~90000
CN1CCN(C(=O)Cn2cc(-c3ccc(-c4cnc(N)c5ncc(C(=O)NC6CC6)cc45)cc3)cn2)CC1 [Compound 3.47, 8-amino-N-cyclopropyl-5-(4-(1-(2-(4-methylpiperazin-1-yl)-2-oxoethyl)-1H-pyrazole-4-yl)phenyl)-1,7-naphthyridine-3-carboxamide]	5.6	1.1	1.1	1.5	3.3	96.5	> 100000
CN(C)C(=O)Cn1cc(-c2ccc(-c3cnc(N)c4ncc(C(=O)NC5CC5)cc34)cc2)cn1 [Compound 3.46, 8-amino-N-cyclopropyl-5-(4-(1-(2-(dimethylamino)-2-oxoethyl)-1H-pyrazole-4-yl)phenyl)-1,7-naphthyridine-3-carboxamide]	2.6	0.7	1.11	0.5	1.1	96.5	> 100000
